{"source": "patent US9708325B2", "about": "“Sulfonimidoylpurinone compounds and derivatives for the treatment and prophylaxis of virus infection” (Hoffmann-La Roche Inc., priority 2015, dated 2017)", "key": {"CYP3A4": {"system": "CYP3A4", "assay": "Cytochrome P450 induction screening assay, mRNA induction in human cryopreserved hepatocytes", "type": "in vitro ADME", "conditions": "24 hours exposure", "text": "Induction of cytochrome P450 enzymes is associated with an increased prevalence of clinical drug-drug interactions. The clinical consequences of induction may be therapeutic failure caused by a decreased systemic exposure of the drug itself or a co-administered therapy, or toxicity as a result of increased bioactivation. Cytochrome P450 (CYP450) induction assay has been used to understand the potential drug-drug interaction liabilities in drug discovery stage. Human cryopreserved hepatocytes (Life Technologies, Carlsbad, USA) were thawed and cultured in collagen I coated 96-well plates with a density of 52,000 cells/well. After attachment, hepatocyte maintenance medium (HMM; Lonza, Switzerland) was changed after cells were pre-cultured overnight. […] Medium change was then performed and cells were exposed for 24 hours to test compounds, positive inducer compounds, or vehicle (0.1% DMSO), respectively. At the end of the compound exposure period, medium was removed and cells lysed using 100 μL/well MagNA Pure LC RNA isolation tissue lysis buffer (Roche Diagnostics AG, Rotkreuz, Switzerland). […] mRNA isolation was performed using the MagNA Pure 96 system (Roche Diagnostics AG, Rotkreuz, Switzerland) and the respective cellular RNA large volume kit (Roche Diagnostics AG, Rotkreuz, Switzerland) from thawed samples diluted 1:1 with PBS. […] The resulting cDNA was diluted with 40 μL of H2O before using for qRT-PCR. qRT-PCR was performed by using the forward and the reverse primer, the corresponding Universal Probe Library (all from Microsynth, Balgach, Switzerland) and the Taqman Fast advanced master mix (Applied Biosystems), on an ABI 7900 machine (Applied Biosystems). qRT-PCR Ct-values for the respective P450s were put into relation to the Ct-value of RN18S1 (microsynth, Balgach, Switzerland) of the same sample. Doing so, a respective Δct-value was calculated. Using the average of all Δct-values for the vehicle control samples, a ΔΔct-value was calculated for each sample (ΔΔct-value(sample)=Δct-value(sample)−average of Δct-value of all vehicle controls). […] The individual fold induction values were then averaged per treatment condition (usually n=3 biological replicates)."}, "[1]": {"assay": "Single dose PK after 1 mg/kg intravenous dosing to rat", "type": "in vivo, Male Wister-Han Rats", "conditions": "IV 1 mpk", "procedure": "The single dose PK in Male Wister-Han Rats was performed to assess pharmacokinetic properties of tested compounds. Two groups of animals were dosed via bolus intravenous (IV) of the respective compound. Blood samples (approximately 20 μL) were collected via Jugular vein or an alternate site at 5 min, 15 min, 30 min, 1 hr, 2 hr, 4 hr, 7 hr and 24 hr post-dose for IV group. Blood samples were placed into tubes containing EDTA-K2 anticoagulant and centrifuged at 5000 rpm for 6 min at 4° C. to separate plasma from the samples. Following centrifugation, the resulting plasma was transferred to clean tubes for bioanalysis on LC/MS/MS. The pharmacokinetic parameters were calculated using non-compartmental module of WinNonlin® Professional 6.2. […] Therefore, compounds of present invention potentially could lead to less dose frequency and lower dose in clinical application."}, "human TLR8": {"molecular_target": "human TLR8 (Homo sapiens (Human), UniProt Q9NR97)", "sequence (Q9NR97 27-1041)": "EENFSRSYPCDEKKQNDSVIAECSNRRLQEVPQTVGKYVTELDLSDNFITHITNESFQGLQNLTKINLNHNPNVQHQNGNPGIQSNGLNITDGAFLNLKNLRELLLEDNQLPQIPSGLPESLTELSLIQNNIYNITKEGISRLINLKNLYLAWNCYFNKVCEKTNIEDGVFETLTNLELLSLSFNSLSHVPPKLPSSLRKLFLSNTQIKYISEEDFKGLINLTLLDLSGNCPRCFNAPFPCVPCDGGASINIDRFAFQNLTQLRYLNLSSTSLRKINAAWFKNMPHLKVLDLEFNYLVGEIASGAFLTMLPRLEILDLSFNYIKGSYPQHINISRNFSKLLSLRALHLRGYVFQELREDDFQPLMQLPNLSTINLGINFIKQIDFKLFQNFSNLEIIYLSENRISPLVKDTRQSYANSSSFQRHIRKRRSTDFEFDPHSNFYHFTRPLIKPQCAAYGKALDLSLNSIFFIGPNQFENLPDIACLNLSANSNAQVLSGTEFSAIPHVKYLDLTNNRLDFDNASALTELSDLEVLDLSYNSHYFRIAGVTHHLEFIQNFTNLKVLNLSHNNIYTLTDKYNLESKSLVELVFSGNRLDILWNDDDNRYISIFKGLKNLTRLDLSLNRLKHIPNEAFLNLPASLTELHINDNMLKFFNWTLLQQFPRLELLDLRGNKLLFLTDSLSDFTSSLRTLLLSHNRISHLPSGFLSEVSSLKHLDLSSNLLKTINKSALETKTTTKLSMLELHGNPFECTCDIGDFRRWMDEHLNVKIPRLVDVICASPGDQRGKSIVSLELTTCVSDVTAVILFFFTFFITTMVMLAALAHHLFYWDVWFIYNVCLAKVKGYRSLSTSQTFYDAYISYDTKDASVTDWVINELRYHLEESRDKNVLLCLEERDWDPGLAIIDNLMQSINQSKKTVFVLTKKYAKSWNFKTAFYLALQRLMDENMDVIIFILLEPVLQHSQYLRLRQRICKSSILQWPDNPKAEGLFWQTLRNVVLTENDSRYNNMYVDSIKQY", "assay": "HEK-Blue-hTLR8 cells assay and selectivity index", "type": "cell-based", "conditions": "EC50(TLR8) value/EC50(TLR7) value"}, "[2]": {"conditions": "7 hrs (row printed 8**), read-out: Mean plasma concentration"}, "[3]": {"conditions": "male, Wistar-Han, plasma, iv, 1 mg/kg, 0.083 h"}, "[4]": {"conditions": "male, Wistar-Han, plasma, iv, 1 mg/kg, 0.25 h"}, "[5]": {"conditions": "male, Wistar-Han, plasma, iv, 1 mg/kg, 0.5 h"}, "[6]": {"conditions": "male, Wistar-Han, plasma, iv, 1 mg/kg, 1 h"}, "[7]": {"conditions": "male, Wistar-Han, plasma, iv, 1 mg/kg, 2 h"}, "[8]": {"conditions": "male, Wistar-Han, plasma, iv, 1 mg/kg, 4 h"}}, "note": "Like-named read-outs stand apart in the source and are kept apart here.", "data": [{"molecule": "CCCS(=N)(=O)c1nc(N)c2[nH]c(=O)n(Cc3ccccc3)c2n1", "note": "(single isomer, unassigned) [Example 4-B, 6-Amino-9-benzyl-2-(propylsulfonimidoyl)-7H-purin-8-one]", "values": [{"measurement": "Relative induction of Positive control (10 μM Rifampicin) (%)", "setting": "CYP3A4", "value": "−0.90", "unit": "%"}]}, {"molecule": "CCS(=N)(=O)c1nc(N)c2[nH]c(=O)n(Cc3ccc(Cl)cc3)c2n1", "note": "(single isomer, unassigned) [Example 70-B, 6-Amino-9-[(4-chlorophenyl)methyl]-2-(ethylsulfonimidoyl)-7H-purin-8-one]", "values": [{"measurement": "AUC0-inf", "setting": "[1]", "value": 1.894, "unit": "µM·h"}, {"measurement": "CL", "setting": "[1]", "value": 48.7, "unit": "mL/min/kg"}, {"measurement": "CO", "setting": "[1]", "value": 2782, "unit": "nM"}, {"measurement": "concentration at 4 h", "setting": "[1]; 0.083 h, read-out: Mean plasma concentration", "value": 2782, "unit": "nM"}, {"measurement": "concentration at 4 h", "setting": "[1]; 0.25 h, read-out: Mean plasma concentration", "value": 1434, "unit": "nM"}, {"measurement": "concentration at 4 h", "setting": "[1]; 0.5 h, read-out: Mean plasma concentration", "value": 862, "unit": "nM"}, {"measurement": "concentration at 4 h", "setting": "[1]; 1 h, read-out: Mean plasma concentration", "value": 461, "unit": "nM"}, {"measurement": "concentration at 4 h", "setting": "[1]; 2 h, read-out: Mean plasma concentration", "value": 173, "unit": "nM"}, {"measurement": "concentration at 4 h", "setting": "[1]; 4 h, read-out: Mean plasma concentration", "value": 29.1, "unit": "nM"}, {"measurement": "concentration at 4 h", "setting": "[1]; [2]", "value": 16.7, "unit": "nM"}, {"measurement": "Relative induction of Positive control (10 μM Rifampicin) (%)", "setting": "CYP3A4", "value": "−0.42", "unit": "%"}]}, {"molecule": "CCS(=N)(=O)c1nc(N)c2[nH]c(=O)n(Cc3ccc(C)cc3)c2n1", "note": "(single isomer, unassigned) [Example 71-A, 6-Amino-2-(ethylsulfonimidoyl)-9-(p-tolylmethyl)-7H-purin-8-one]", "values": [{"measurement": "CO", "setting": "[1]", "value": 1848, "unit": "nM"}, {"measurement": "concentration at 0.083 h", "setting": "[1]; [3]", "value": 1850, "unit": "nM"}, {"measurement": "concentration at 0.25 h", "setting": "[1]; [4]", "value": 1000, "unit": "nM"}, {"measurement": "concentration at 0.5 h", "setting": "[1]; [5]", "value": 537, "unit": "nM"}, {"measurement": "concentration at 1 h", "setting": "[1]; [6]", "value": 292, "unit": "nM"}, {"measurement": "concentration at 2 h", "setting": "[1]; [7]", "value": 115, "unit": "nM"}, {"measurement": "concentration at 4 h", "setting": "[1]; [8]", "value": 18.2, "unit": "nM"}, {"measurement": "Relative induction of Positive control (10 μM Rifampicin) (%)", "setting": "CYP3A4", "value": "−0.10", "unit": "%"}]}, {"molecule": "CCCS(=N)(=O)c1nc(N)c2[nH]c(=O)n(Cc3ccccc3)c2n1", "note": "(single isomer, unassigned) [Example 4-A, 6-Amino-9-benzyl-2-(propylsulfonimidoyl)-7H-purin-8-one]", "values": [{"measurement": "Relative induction of Positive control (10 μM Rifampicin) (%)", "setting": "CYP3A4", "value": "−0.63", "unit": "%"}]}, {"molecule": "CCS(=N)(=O)c1nc(N)c2[nH]c(=O)n(Cc3ccc(Cl)cc3)c2n1", "note": "(single isomer, unassigned) [Example 70-A, 6-Amino-9-[(4-chlorophenyl)methyl]-2-(ethylsulfonimidoyl)-7H-purin-8-one]", "values": [{"measurement": "Selective index", "setting": "human TLR8", "value": ">18518"}, {"measurement": "CO", "setting": "[1]", "value": 3052, "unit": "nM"}, {"measurement": "concentration at 4 h", "setting": "[1]; [2]", "value": 6.28, "unit": "nM"}, {"measurement": "concentration at 0.083 h", "setting": "[1]; [3]", "value": 3050, "unit": "nM"}, {"measurement": "concentration at 0.25 h", "setting": "[1]; [4]", "value": 1340, "unit": "nM"}, {"measurement": "concentration at 0.5 h", "setting": "[1]; [5]", "value": 718, "unit": "nM"}, {"measurement": "concentration at 1 h", "setting": "[1]; [6]", "value": 354, "unit": "nM"}, {"measurement": "concentration at 2 h", "setting": "[1]; [7]", "value": 110, "unit": "nM"}, {"measurement": "concentration at 4 h", "setting": "[1]; [8]", "value": 20.5, "unit": "nM"}, {"measurement": "Relative induction of Positive control (10 μM Rifampicin) (%)", "setting": "CYP3A4", "value": 0.42, "unit": "%"}]}]}
